# Measurements as given in US8916575B2, “Quinazoline derivatives for the treatment of viral infections and further diseases” (Janssen R&D Ireland, priority 2011, dated 2014).
# Tested on: interferon-stimulated responsive elements (ISRE)
# Assay: Activation of ISRE promoter elements by conditioned media from PBMC (HEK-ISREluc)
# Assay type: cell-based, human
# Set-up: unit not given here
# Conditions: compound applied to PBMCs, supernatant transferred to HEK-ISREluc cells, 24 hours
# Description: The potential of compounds to induce IFN-I was also evaluated by measuring the activation of interferon-stimulated responsive elements (ISRE) by conditioned media from PBMC. The ISRE element of sequence GAAACTGAAACT is highly responsive to the STAT1-STAT2-IRF9 transcription factor, activated upon binding of IFN-I to their receptor IFNAR (Clontech, PT3372-5W). The plasmid pISRE-Luc from Clontech (ref. 631913) contains 5 copies of this ISRE element, followed by the firefly luciferase ORF. A HEK293 cell line stably transfected with pISRE-Luc (HEK-ISREluc) was established to profile of the conditioned PBMC cell culture media.
# Briefly, PBMCs were prepared from buffy coats of at least two donors using a standard Ficoll centrifugation protocol. Isolated PBMCs were resuspended in RPMI medium supplemented with 10% human AB serum and 2×10^5 cells/well were dispensed into 384-well plates containing compounds (70 μL total volume). After overnight incubation, 10 μL of supernatant was transferred to 384-well plates containing 5×10^3 HEK-ISREluc cells/well in 30 μL (plated the day before). Following 24 hours of incubation, activation of the ISRE elements was measured by assaying luciferase activity using 40 μL/well Steady Lite Plus substrate (Perkin Elmer) and measured with ViewLux ultraHTS microplate imager (Perkin Elmer). The stimulating activity of each compound on the HEK-ISREluc cells was reported as LEC value, defined as the compound concentration applied to the PBMCs resulting in a luciferase activity at least two fold above the standard deviation of the assay. The LEC in turn indicates the degree of ISRE activation on transfer of a defined amount of PBMC culture medium. Recombinant interferon α-2a (Roferon-A) was used as a standard control compound.
row,Structure (SMILES),HEK-ISRE luc (LEC)
1,CCC[C@@H](CCO)Nc1nc(N)nc2cc(F)ccc12 [Compound 64],0.04
2,CCC[C@@H](CO)Nc1nc(N)nc2cccc(-c3ccccc3)c12 [Compound 10],2.14
3,CCCCNc1nc(N)nc2cc(OC)ccc12 [Compound 39],0.15
4,CCCCNc1nc(N)nc2cc(F)c(F)cc12 [Compound 42],0.26
5,CCC[C@@H](CO)Nc1nc(N)nc2c(C)cccc12 [Compound 43],0.59
6,CCCCNc1nc(N)nc2cccc(Cl)c12 [Compound 41],0.17
7,CCCC[C@@H](CO)Nc1nc(N)nc2cccc(F)c12 [Compound 62],0.03
8,CCCCNc1nc(N)nc2cc(CO)ccc12 [Compound 18],0.05
9,CC[C@H](C)[C@@H](CO)Nc1nc(N)nc2ccc(F)cc12 [Compound 68],0.64
10,CCCC[C@@H](CO)Nc1nc(N)nc2ccc(OC)cc12 [Compound 77],1.93
11,CCCC[C@@H](CO)Nc1nc(N)nc2ccc(F)cc12 [Compound 61],0.12
12,CCCCNc1nc(N)nc2cc(OC)c(OCc3ccccc3)cc12 [Compound 89],>24
13,CCC[C@@H](CCO)Nc1nc(N)nc2cc(C)ccc12 [Compound 53],0.02
14,CCCCNc1nc(N)nc2ccc(Br)cc12 [Compound 85],0.21
15,CCC[C@@H](CO)Nc1nc(N)nc2ccc(F)cc12 [Compound 49],0.13
16,C#CCOc1cccc2nc(N)nc(NCCCC)c12 [Compound 30],0.04
17,CCC[C@@H](CCO)Nc1nc(N)nc2ccc(F)cc12 [Compound 65],0.56
18,CCC[C@@H](CO)Nc1nc(N)nc2cc(F)c(F)cc12 [Compound 72],0.05
19,CCC[C@@H](CCO)Nc1nc(N)nc2c(F)cccc12 [Compound 63],0.04
20,CCCCCNc1nc(N)nc2ccc(Br)cc12 [Compound 13],0.57
21,CCCCNc1nc(N)nc2ccc(F)cc12 [Compound 38],0.11
22,CCCC[C@@H](CCO)Nc1nc(N)nc2ccc(C)cc12 [Compound 74],0.14
23,CC[C@H](C)[C@@H](CO)Nc1nc(N)nc2c(F)cccc12 [Compound 67],0.21
24,CCC[C@@H](CCO)Nc1nc(N)nc2ccc(Oc3ccc(C(F)(F)F)cc3Cl)cc12 [Compound 27],14.21

row,Structure (SMILES),HEK-ISRE luc (LEC)
1,CCCC[C@@H](CCO)Nc1nc(N)nc2ccc(OC)cc12 [Compound 88],0.88
2,CCC[C@@H](CCO)Nc1nc(N)nc2ccc(Oc3ccc(C(F)(F)F)cc3)cc12 [Compound 29],>23.81
3,CCCC[C@@H](CCO)Nc1nc(N)nc2ccc(F)cc12 [Compound 83],0.37
4,CCC[C@@H](CCO)Nc1nc(N)nc2cccc(F)c12 [Compound 66],0.06
5,CCCC[C@@H](CCO)Nc1nc(N)nc2cc(OC)ccc12 [Compound 87],0.04
6,CCC[C@@H](CO)Nc1nc(N)nc2c(Cl)cccc12 [Compound 69],0.73
7,CCCCNc1nc(N)nc2ccc(Oc3ccc(C(F)(F)F)cc3Cl)cc12 [Compound 35],>23.81
8,CCC[C@@H](CO)Nc1nc(N)nc2cc(Cl)ccc12 [Compound 70],0.01
9,CCCC[C@@H](CCO)Nc1nc(N)nc2cccc(F)c12 [Compound 84],0.09
10,CCCC[C@@H](CCO)Nc1nc(N)nc2cccc(C)c12 [Compound 75],0.02
11,CC[C@H](C)[C@@H](CO)Nc1nc(N)nc2ccc(OC)cc12 [Compound 80],>24
12,CCC[C@@H](CO)Nc1nc(N)nc2cc(F)ccc12 [Compound 48],0.02
13,CCCC[C@@H](CCO)Nc1nc(N)nc2cc(F)ccc12 [Compound 82],0.04
14,CCC[C@@H](CO)Nc1nc(N)nc2cc(C)ccc12 [Compound 44],0.09
15,CCC[C@@H](CO)Nc1nc(N)nc2cccc(F)c12 [Compound 50],0.01
16,CCC[C@@H](CO)Nc1nc(N)nc2ccc(CO)cc12 [Compound 34],0.39
17,CCCC[C@@H](CCO)Nc1nc(N)nc2c(F)cccc12 [Compound 81],0.05
18,CCCC[C@@H](CCO)Nc1nc(N)nc2cc(C)ccc12 [Compound 73],0.02
19,CCC[C@@H](CO)Nc1nc(N)nc2cc(OC)ccc12 [Compound 56],0.09
20,CCC[C@@H](CO)Nc1nc(N)nc2cccc(OC)c12 [Compound 58],0.04
21,CCCCNc1nc(N)nc2cc(C(=O)OC)ccc12 [Compound 17],0.75
22,CCCCNc1nc(N)nc2cccc(OCCOC)c12 [Compound 11],0.12
23,CCCCNc1nc(N)nc2cccc(OC(C)C)c12 [Compound 31],0.04
24,CCC[C@@H](CO)Nc1nc(N)nc2cccc(C)c12 [Compound 46],0.07

row,Structure (SMILES),HEK-ISRE luc (LEC)
1,CCCC[C@@H](CO)Nc1nc(N)nc2cc(OC)ccc12 [Compound 76],0.09
2,CCCCNc1nc(N)nc2ccc(CO)cc12 [Compound 24],0.14
3,CCCC[C@@H](CO)Nc1nc(N)nc2cc(F)ccc12 [Compound 60],0.02
4,CCC[C@@H](CCO)Nc1nc(N)nc2ccc(C(C)C)cc12 [Compound 26],3.07
5,CCC[C@@H](CO)Nc1nc(N)nc2ccc(OC)cc12 [Compound 57],2.08
6,CCC[C@@H](CO)Nc1nc(N)nc2cccc(Cl)c12 [Compound 71],0.03
7,CCC[C@@H](CCO)Nc1nc(N)nc2ccc(CC)cc12 [Compound 25],0.16
8,CCC[C@@H](CO)Nc1nc(N)nc2cc(C(=O)OC)ccc12 [Compound 86],0.28
9,CCCCNc1nc(N)nc2c(F)cccc12 [Compound 37],0.07
10,CCCCNc1nc(N)nc2cccc(C)c12 [Compound 36],0.32
11,CCC[C@@H](CCO)Nc1nc(N)nc2ccc(OC)cc12 [Compound 79],2.07
12,CCCCNc1nc(N)nc2ccc(-n3cnc(C)c3)cc12 [Compound 21],12.06
13,CCC[C@@H](CCO)Nc1nc(N)nc2ccc(C)cc12 [Compound 54],0.18
14,CCCC[C@@H](CO)Nc1nc(N)nc2ccc(C)cc12 [Compound 51],0.09
15,CCC[C@@H](CCO)Nc1nc(N)nc2cc(OC)ccc12 [Compound 78],0.04
16,CCCC[C@@H](CO)Nc1nc(N)nc2cccc(C)c12 [Compound 52],0.03
17,CCCCNc1nc(N)nc2ccc(OC)cc12 [Compound 40],2.44
18,CCCC[C@@H](CO)Nc1nc(N)nc2c(F)cccc12 [Compound 59],0.05
19,CCC[C@@H](CO)Nc1nc(N)nc2c(F)cccc12 [Compound 47],0.05
20,CCCCNc1nc(N)nc2cc(Cl)c3c(c12)OCCO3 [Compound 28],1.11
21,CCCCNc1nc(N)nc2cccc(CCc3ccccc3)c12 [Compound 32],0.27
22,CCCCNc1nc(N)nc2cccc(OC)c12 [Compound 9],0.10
23,CCC[C@@H](CO)Nc1nc(N)nc2ccc(C)cc12 [Compound 45],0.04
24,CCC[C@@H](CO)Nc1nc(N)nc2cc(CO)ccc12 [Compound 33],0.14
